Reference: publication PMC11073699, “Odorant receptors for floral- and plant-derived volatiles in the yellow fever mosquito, Aedes aegypti (Diptera: Culicidae)” (PLOS ONE, 2024)
Several values for one entry are separate records, joined by “and”; a condition that tells them apart may be missing. Identical values can stand only once.

Tests used:
Assay type in all cases: cell-based
AaegOR13 = biological target: T1, AaegOR13 (Aedes aegypti, UniProt Q16Z13); experiment: Two-electrode voltage clamp of Xenopus laevis oocytes expressing AaegOR13/Orco (blends, unitary compounds, concentration-response); conditions: unitary compounds; for Raw data (Responses in nA), unitary compounds of Indoles 1, Alcohols 1, Alcohols 3 / Normalized response, unitary compounds of Indoles 1, Alcohols 1, Alcohols 3: individual oocytes 1-7; for Normalized response, unitary compounds, Average: average of oocytes 1-7; for Normalized response, unitary compounds of Indoles 1, Alcohols 1, Alcohols 3: normalized per oocyte
T1 sequence (Q16Z13 1-389): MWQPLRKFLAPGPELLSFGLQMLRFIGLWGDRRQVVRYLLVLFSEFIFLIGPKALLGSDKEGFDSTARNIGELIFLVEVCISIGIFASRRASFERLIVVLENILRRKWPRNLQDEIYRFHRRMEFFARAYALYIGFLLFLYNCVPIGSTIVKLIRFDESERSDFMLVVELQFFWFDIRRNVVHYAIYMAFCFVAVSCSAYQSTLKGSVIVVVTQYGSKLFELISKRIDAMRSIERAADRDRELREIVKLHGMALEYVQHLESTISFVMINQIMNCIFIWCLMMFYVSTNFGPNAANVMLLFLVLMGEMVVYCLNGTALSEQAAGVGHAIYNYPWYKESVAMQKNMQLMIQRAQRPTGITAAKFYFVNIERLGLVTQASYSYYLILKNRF
T1 sequence (Q178U6 1-478 partner): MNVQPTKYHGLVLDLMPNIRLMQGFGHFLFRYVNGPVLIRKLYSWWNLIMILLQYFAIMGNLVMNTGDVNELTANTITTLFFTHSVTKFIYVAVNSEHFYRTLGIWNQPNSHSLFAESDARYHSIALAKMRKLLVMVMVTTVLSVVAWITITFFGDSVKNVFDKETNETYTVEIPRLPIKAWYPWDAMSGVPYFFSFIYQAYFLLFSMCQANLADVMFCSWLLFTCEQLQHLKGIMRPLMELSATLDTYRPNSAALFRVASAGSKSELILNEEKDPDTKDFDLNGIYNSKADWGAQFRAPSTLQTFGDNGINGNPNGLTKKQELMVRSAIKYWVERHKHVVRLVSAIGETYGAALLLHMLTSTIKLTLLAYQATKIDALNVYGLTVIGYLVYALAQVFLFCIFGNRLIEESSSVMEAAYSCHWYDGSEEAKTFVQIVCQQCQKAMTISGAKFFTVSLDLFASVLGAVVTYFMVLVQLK
Excerpt: (§1) The coding regions of ten AaegOR genes of interest (S3 File) and AaegOrco were synthesized by Twist Bioscience (San Francisco, CA, USA) and cloned into the pENTR plasmid. The Gateway LR directional cloning system (Invitrogen Corp., Carlsbad, CA, USA) was utilized to subclone AaegOR coding regions into the pSP64t-RFA oocyte expression plasmid. Plasmids were purified using the GeneJet Plasmid Miniprep Kit (ThermoFisher Scientific, Waltham, MA, USA). Purified plasmids were sequenced in both directions to confirm coding regions.
(§2) Chemical compounds (S6 File) used in the deorphanization of AaegORs were purchased from Acros Organics (Morris, NJ, USA), Alfa Aesar (Ward Hill, MA, USA), and ThermoFisher Scientific (Waltham, MA, USA) at the highest purity available. Compounds were stored as 1M stocks in 100% DMSO. Serial dilutions of each compound were prepared in 10% DMSO and blended by chemical class.
(§3) pSP64t-RFA: AaegOR clones were linearized using Xbal, and cRNAs were synthesized using the mMESSAGE mMACHINE ® SP6 kit (Life Technologies, Carlsbad, CA, USA). Xenopus laevis stage V-VII oocytes purchased from Xenopus1 (Dexter, MI, USA) were stored at 18°C in Incubation medium (ND96 96 with 5% dialyzed horse serum, 50μg/mL gentamycin, 100μg/mL streptomycin, 100μg/mL penicillin, and 550μg/mL sodium pyruvate). 30nL of cRNA was injected into multiple oocytes using a microinjection syringe pump (World Precision Instruments, Sarasota, FL, USA) maintained at 18°C for 48–72 hrs. Odorant blends were perfused across individual oocytes for 10–15 seconds, held at a resting membrane potential of -80 mV using an OC-725C oocyte clamp (Warner Instruments, LLC, Hamden, CT, USA). Induced currents were measured indirectly using the two-electrode voltage clamp technique (TEVC). Following each stimulus, currents were allowed to return to baseline before further stimulation. Data was captured using the Digidata 1550 B digitizer and PClamp10 software (Molecular Devices, San Jose, CA, USA). Concentration-response curves were generated by perfusing unitary odorants over oocytes at increasing concentrations from [10^-3M] to [10^-9M]. Data were analyzed using GraphPad Prism 8 (GraphPad Software Inc., La Jolla, CA, USA). At least two biological replicates were conducted at each concentration and for each compound. Data for at least seven oocytes responding to each compound was analyzed (S7 File).

AaegOR8 = biological target: T2, AaegOR8 (Aedes aegypti, UniProt Q16MN0); experiment: Two-electrode voltage clamp of Xenopus laevis oocytes expressing AaegOR8/Orco (blends, unitary compounds, concentration-response); conditions: Alcohols 2 unitary compounds
T2 sequence (Q16MN0 32-422): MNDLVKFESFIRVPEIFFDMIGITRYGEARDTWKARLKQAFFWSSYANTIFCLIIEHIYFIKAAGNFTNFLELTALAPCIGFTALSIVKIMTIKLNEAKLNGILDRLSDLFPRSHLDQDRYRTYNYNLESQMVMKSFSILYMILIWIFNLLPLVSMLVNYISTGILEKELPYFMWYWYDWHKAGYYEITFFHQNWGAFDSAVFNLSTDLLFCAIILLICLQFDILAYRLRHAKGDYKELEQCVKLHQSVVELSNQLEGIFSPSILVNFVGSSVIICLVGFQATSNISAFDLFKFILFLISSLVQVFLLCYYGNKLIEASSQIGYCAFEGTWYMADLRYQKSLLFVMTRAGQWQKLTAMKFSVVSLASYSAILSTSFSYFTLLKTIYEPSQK
T2 sequence (Q178U6 1-478 partner): T1 sequence (Q178U6 1-478 partner)
Excerpt: as §1, §2, §3

AaegOR71 = biological target: T3, AaegOR71 (Aedes aegypti, UniProt A0A3S7SHD4); experiment: Two-electrode voltage clamp of Xenopus laevis oocytes expressing AaegOR71/Orco (blends, unitary compounds, concentration-response); conditions: for Raw Data (Response in nA): concentration-response, Oocytes 1-8 individually
T3 sequence (A0A3S7SHD4 1-415): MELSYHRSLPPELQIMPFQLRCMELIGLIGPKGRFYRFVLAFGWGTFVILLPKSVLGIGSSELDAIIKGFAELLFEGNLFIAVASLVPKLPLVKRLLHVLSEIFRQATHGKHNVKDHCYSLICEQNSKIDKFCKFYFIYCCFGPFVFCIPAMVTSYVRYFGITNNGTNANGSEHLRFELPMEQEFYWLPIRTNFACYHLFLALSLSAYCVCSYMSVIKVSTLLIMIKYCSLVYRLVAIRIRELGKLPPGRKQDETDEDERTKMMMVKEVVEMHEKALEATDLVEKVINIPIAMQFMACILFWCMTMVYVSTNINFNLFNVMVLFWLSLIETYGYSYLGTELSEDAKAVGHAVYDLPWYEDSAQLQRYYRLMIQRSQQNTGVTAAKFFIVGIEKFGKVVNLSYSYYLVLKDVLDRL
T3 sequence (Q178U6 1-478 partner): T1 sequence (Q178U6 1-478 partner)
Excerpt: as §1, §2, §3

AaegOR6 = biological target: T4, AaegOR6 (Aedes aegypti, UniProt A0A1S4G757); experiment: Two-electrode voltage clamp of Xenopus laevis oocytes expressing AaegOR6/Orco (blends, unitary compounds, concentration-response); conditions: Indoles 2 unitary compounds
T4 sequence (A0A1S4G757 1-398): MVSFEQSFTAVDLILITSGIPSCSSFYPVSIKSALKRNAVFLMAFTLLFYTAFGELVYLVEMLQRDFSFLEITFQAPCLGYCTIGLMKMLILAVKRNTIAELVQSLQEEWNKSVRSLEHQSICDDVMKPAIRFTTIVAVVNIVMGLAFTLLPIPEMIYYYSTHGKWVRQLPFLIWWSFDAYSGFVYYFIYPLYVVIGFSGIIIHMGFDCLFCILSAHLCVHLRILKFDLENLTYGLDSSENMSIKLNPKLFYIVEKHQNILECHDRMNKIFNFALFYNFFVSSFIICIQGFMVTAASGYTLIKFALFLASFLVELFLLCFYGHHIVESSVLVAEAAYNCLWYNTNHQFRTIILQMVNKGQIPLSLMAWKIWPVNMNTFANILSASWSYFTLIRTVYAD
T4 sequence (Q178U6 1-478 partner): T1 sequence (Q178U6 1-478 partner)
Excerpt: as §1, §2, §3

O=Cc1c[nH]c2ccccc12 [indole-3-carboxyaldehyde]
Raw data (Responses in nA), unitary compounds of Indoles 1, Alcohols 1, Alcohols 3 (AaegOR13): 0.0 nA (2×) and 5.0 nA (5×)

CC1CCCC2(C)CCCCC12O (stereo not shown) [Geosmin]
Raw data (Responses in nA) Oocyte 1 (AaegOR8; oocyte 1): 0.0 nA
Raw data (Responses in nA) Oocyte 2 (AaegOR8; oocyte 2): 0.0 nA
Raw data (Responses in nA) Oocyte 3 (AaegOR8; oocyte 3): 0.0 nA
Raw data (Responses in nA) Oocyte 4 (AaegOR8; oocyte 4): 0.0 nA
Raw data (Responses in nA) Oocyte 5 (AaegOR8; oocyte 5): 0.0 nA
Raw data (Responses in nA) Oocyte 6 (AaegOR8; oocyte 6): 0.0 nA
Raw data (Responses in nA) Oocyte 7 (AaegOR8; oocyte 7): 0.0 nA
Raw data (Responses in nA) Oocyte 8 (AaegOR8; oocyte 8): 0.0 nA

CC(C)(C)c1ccc(O)cc1 [4-tert-butylphenol]
Raw data (Responses in nA), unitary compounds of Indoles 1, Alcohols 1, Alcohols 3 (AaegOR13): 10.0 nA and 305.0 nA and 70.0 nA and 85.0 nA and 150.0 nA and 90.0 nA and 55.0 nA

C=CC(C)(O)CCC=C(C)C (single isomer, unassigned; (-)) [(-) Linalool]
Normalized response, unitary compounds, Average (AaegOR13): 0.26
Raw data (Responses in nA), unitary compounds of Indoles 1, Alcohols 1, Alcohols 3 (AaegOR13): 0.0 nA (6×) and 5.0 nA
Normalized response, unitary compounds of Indoles 1, Alcohols 1, Alcohols 3 (AaegOR13): 0.0 (6×) and 1.8

C=CC(C)(O)CCC=C(C)C (single isomer, unassigned; (+)) [(+) Linalool]
Normalized response, unitary compounds, Average (AaegOR13): 0.0
Raw data (Responses in nA), unitary compounds of Indoles 1, Alcohols 1, Alcohols 3 (AaegOR13): 0.0 nA
Normalized response, unitary compounds of Indoles 1, Alcohols 1, Alcohols 3 (AaegOR13): 0.0

O=Cc1ccnc2ccccc12 [4-quinolinecarboxaldehyde, 4-Quinolinecarboxaldehyde]
EC50 (AaegOR71; AaegOR71/Orco expressing oocytes, TEVC, concentration-response of normalized current): ~960 nM and 960 nM
Raw Data (Response in nA) Oocyte 1 (AaegOR71; Indoles 2 unitary compounds, oocyte 1): 1070 nA
Raw Data (Response in nA) Oocyte 2 (AaegOR71; Indoles 2 unitary compounds, oocyte 2): 2930 nA
Raw Data (Response in nA) Oocyte 3 (AaegOR71; Indoles 2 unitary compounds, oocyte 3): 590 nA
Raw Data (Response in nA) Oocyte 4 (AaegOR71; Indoles 2 unitary compounds, oocyte 4): 1710 nA
Raw Data (Response in nA) Oocyte 5 (AaegOR71; Indoles 2 unitary compounds, oocyte 5): 390 nA
Raw Data (Response in nA) Oocyte 6 (AaegOR71; Indoles 2 unitary compounds, oocyte 6): 930 nA
Raw Data (Response in nA) Oocyte 7 (AaegOR71; Indoles 2 unitary compounds, oocyte 7): 330 nA
Raw Data (Response in nA) Oocyte 8 (AaegOR71; Indoles 2 unitary compounds, oocyte 8): 410 nA
Raw Data (Response in nA) (AaegOR71; first series, 1e-9 M): 10 nA (2×) and 0 nA (5×) and 30 nA
Raw Data (Response in nA) (AaegOR71; first series, 5e-9 M): 30 nA (2×) and 10 nA (2×) and 20 nA and 0 nA and 5 nA (2×)
Raw Data (Response in nA) (AaegOR71; first series, 1e-8 M): 60 nA (2×) and 15 nA and 30 nA and 25 nA and 5 nA and 10 nA (2×)
Raw Data (Response in nA) (AaegOR71; first series, 5e-8 M): 140 nA and 35 nA and 70 nA and 25 nA (2×) and 110 nA and 10 nA and 30 nA
Raw Data (Response in nA) (AaegOR71; first series, 1e-7 M): 200 nA and 50 nA (3×) and 120 nA and 30 nA (2×) and 190 nA
Raw Data (Response in nA) (AaegOR71; first series, 5e-7 M): 500 nA and 150 nA and 320 nA and 90 nA (2×) and 380 nA and 100 nA and 120 nA
Raw Data (Response in nA) (AaegOR71; first series, 1e-6 M): 620 nA and 180 nA and 410 nA and 125 nA and 470 nA and 140 nA and 150 nA (2×)
Raw Data (Response in nA) (AaegOR71; second series (unlabelled), 5e-9 M): 8.84 nA and 16 nA and 25 nA and 15 nA (2×) and 5 nA (2×) and 0 nA
Raw Data (Response in nA) (AaegOR71; second series (unlabelled), 1e-8 M): 20 nA (3×) and 40 nA (2×) and 60 nA and 150 nA and 30 nA
Raw Data (Response in nA) (AaegOR71; second series (unlabelled), 5e-8 M): 40 nA (4×) and 80 nA and 100 nA and 160 nA and 20 nA
Raw Data (Response in nA) (AaegOR71; second series (unlabelled), 1e-7 M): 60 nA (3×) and 120 nA (2×) and 190 nA and 40 nA and 50 nA
Raw Data (Response in nA) (AaegOR71; second series (unlabelled), 5e-7 M): 140 nA and 240 nA and 260 nA and 110 nA and 80 nA (2×) and 300 nA and 50 nA
Raw Data (Response in nA) (AaegOR71; second series (unlabelled), 1e-6 M): 180 nA and 290 nA (2×) and 140 nA
Raw data (Responses in nA) Oocyte 1 (AaegOR6; oocyte 1): 0.0 nA
Raw data (Responses in nA) Oocyte 2 (AaegOR6; oocyte 2): 0.0 nA
Raw data (Responses in nA) Oocyte 3 (AaegOR6; oocyte 3): 0.0 nA
Raw data (Responses in nA) Oocyte 4 (AaegOR6; oocyte 4): 0.0 nA
Raw data (Responses in nA) Oocyte 5 (AaegOR6; oocyte 5): 0.0 nA
Raw data (Responses in nA) Oocyte 6 (AaegOR6; oocyte 6): 0.0 nA
Raw data (Responses in nA) Oocyte 7 (AaegOR6; oocyte 7): 0.0 nA
Raw data (Responses in nA) Oocyte 8 (AaegOR6; oocyte 8): 0.0 nA
